According to patent US20010019728A1 (priority 1997, published 2001):
Where “and” joins values, the source holds several entries; their conditions need not be identical. Equal entries are not always repeated.

Columns and labels:
Conditions in all cases: in vivo
[1] = system: Fusarium oxysporum
[2] = system: Nonparasitic nematodes
[3] = system: total plant-parasitic nematode population
[4] = system: Xiphinema americanum
[5] = system: Xiphinema index
[6] = system: dagger nematode (Xiphinema index+Xiphinema americanum)
[7] = system: Tylenchorhynchus spp.

CI [Methyl Iodide 0.5X, Methyl iodide]
Fusarium oxysporum [1]: 3.79a Log (cfu/g soil) and 3.44a Log (cfu/g soil)

CNC(=S)[S-].[Na+] [Metham Sodium 1X, Metham sodium]
Nonparasitic nematodes [2]: 944a Nematodes/250 cc soil and 651d Nematodes/250 cc soil

CCOP(=O)(NC(C)C)Oc1ccc(SC)c(C)c1 (stereo not shown) [FENAMIPHOS®, FENAMIPHOS]
Plant-parasitic Nematode Population: Total [3]: 80.00a per 250 cc soil and 94.00a per 250 cc soil and 105.80a per 250 cc soil | decrease in overall total plant-parasitic nematode population relative to the untreated control [3]: 30% and 31% | decrease in overall total plant-parasitic nematodes populations relative to the untreated control [3]: 51% | reduction in group nematode population without considering the Helicotylenchus nematode species [3]: 12% | Plant-parasitic Nematode Population: Xiphinema americanum [4]: 10.00a per 250 cc soil and 9.00a per 250 cc soil and 5.40a per 250 cc soil | decrease in the Xiphinema americanum populations relative to the untreated control [4]: no effect | decrease of the Xiphinema americanum population relative to T5 [4]: not controlled | Plant-parasitic Nematode Population: Xiphinema index [5]: 30.00a per 250 cc soil | population increase in the soil Xiphinema index populations relative to the untreated control [5]: 30% | reduction of Xiphinema index populations [5]: 84% | reduction in the dagger nematode (Xiphinema index+Xiphinema americanum) populations relative to T5 [6]: 73% | Plant-parasitic Nematode Population: Tylenchorhynchus spp. [7]: 0.00a per 250 cc soil

C#CCBr [Propargyl Bromide, Propargyl bromide]
Nonparasitic nematodes [2]: 1,304a Nematodes/250 cc soil and 1,600cd Nematodes/250 cc soil | Fusarium oxysporum [1]: 1.26d Log (cfu/g soil) and 1.10cd Log (cfu/g soil)
